Columns and labels:
Type in all cases: in vivo, human
[1] = tested on: immune age (IMM-AGE) score of peripheral blood; assay: Immune-age score from whole blood gene expression (Affymetrix Clariom S, single-sample GSEA) before and after infliximab
From the text: (§1) Patient samples were obtained at three time points: at baseline, before infliximab treatment, and two and fourteen weeks post first treatment and assayed for gene expression microarray data.
Blood transcriptome processing and analysis: Whole blood was preserved in PAXgene Blood RNA tubes (PreAnalytiX). RNA was extracted and assayed using Affymetrix Clariom S chips (Thermo Fisher Scientific). The raw gene array data were processed to obtain a log 2 expression value for each gene probe set using the RMA (robust multichip average) method available in the affy R package. Probe set annotation was performed using affycoretools and clariomshumantranscriptcluster.db packages in R. Data were further adjusted for batch effect using empirical Bayes framework applied by the Combat R package.
Using a high-resolution longitudinal gene expression dataset from peripheral blood samples of 24 CD patients, 15 and 9 responding and non-responding patients, at three time points: pretreatment, 2 and 14 weeks post first treatment, the present inventors evaluated the samples' immune-age score reflecting the samples' position along the high dimensional IMM-AGE trajectory. To quantify the immune age of the CD patients, they used normalized gene expression measurements of the following genes: ABLIM1, AFF3, BACH2, BCL11A, BIRC3, BLNK, BTLA, C11orf31, C6orf48, CCR6, CCR7, CD200, CD22, CD27, CD28, CDCA7L, CHMP7, CR2, DPP4, E2F5, EPHX2, FAIM3, FAM102A, FAM134, FCRL1, FCRL2. HOOK1, HVCN1, IL6ST, IMPDH2, KIAA0748, LEF1, LRRN3, MYC, NELL2, NT5E, P2RX5, PAQR8, PLAG1, PTPRK, RCAN3, SCML1, SLC7A6, SNX9, STRBP, SUSD3, TCF4, TCF7, TCL1A, TCTN1, UXT, VPREB3, ZNF101, ZNF671, CRTC3, STAP1 and HLA-DOB.
The immune-age of the CD patients was estimated by using single-sample GSEA algorithm (Barbie D A et al. Nature 462, 108-112 (2009)). An external IBD (CD and UC) disease specific molecular response axis was used to describe the patients' dynamics by generating a PCA on differential gene expression between active and in-active disease states treated with variety of treatment regimens (using public data, GSE94648).

[2] = tested on: Crohn's disease (CD) patients; assay: Infliximab induction treatment of Crohn's disease patients: clinical and laboratory outcome (CRP, albumin, HBI, clinical response, response classification); conditions: for HBI 14 w post first treatment: Harvey-Bradshaw Index; for HBI 14 w post first treatment / Albumin 2 w post first treatment / Albumin 14 w post first treatment / CRP 2 w post first treatment / CRP 14 w post first treatment: mean ± SEM
Protocol: (§2) Sample collection: The cohort consisted of 24 Crohn's disease (CD) patients who received Infliximab anti-TNF treatment at the gastroenterology department of the Rambam Health Care Campus (RHCC) and met the study inclusion criteria as follows: 1) Adequately documented active luminal CD, as phenotyped by a gastroenterologist with expertise in IBD; 2) Documented decision to initiate full infliximab induction regimen with 5 mg/kg induction dosing (i.e. at weeks 0, 2, 6). Patients that had past exposure to Infliximab, Adalimumab or Vedolizumab, or patients who had active infection including febrile diseases or intra-abdominal or perianal abscess were excluded.
as §1
Patient response classification was defined by decision algorithm, as described previously (Gaujoux et al. 2018). Briefly, patients were classified as responders based on clinical remission, which was defined as cessation of diarrhea and abdominal cramping or, in the cases of patients with fistulas, cessation of fistula drainage and complete closure of all draining fistulas at week 14, coupled with a decision of the treating physician to continue IFX therapy at the current dosing and schedule. Patients that were defined as partial responders, classification was determined by the decision algorithm that included the following hierarchical rules: 1) steroid dependency at week fourteen; 2) biomarker dynamics (Calprotectin and CRP) and 3) response according to clinical state at week 26.
Applying the decision algorithm and exclusion criteria, yielded a final study cohort of 15 and 9 responding and non-responding patients, respectively.

[3] = Infliximab drug levels and anti-drug antibodies (ADA) after first treatment; conditions: drug level, mean ± SEM, levels >20 taken as 20
Protocol: as §2, §1

[4] = of 24 CD patients, classified by decision algorithm at week 14

## Infliximab [IFX]
[1]; cohort of 24 CD patients treated with anti-TNF (Infliximab)
  shift of patients' immune age: dramatically shift patients' immune age
[1]; responders versus non-responders, post treatment relative to baseline
  immune age dynamics in responders: shifted back their immune age and presented a significant drop
[1]; responders, 2 weeks post treatment
  immune age score in responders, early: significant reduced immune age score
[2]; IFX non-responders (n = 9)
  HBI 14 w post first treatment: 5 ± 2.2
  Albumin 2 w post first treatment: 3.3 ± 0.3
  Albumin 14 w post first treatment: 3.1 ± 0.2
  CRP 2 w post first treatment: 8.8 ± 3.2
  CRP 14 w post first treatment: 28.0 ± 13.6
[2]; IFX responders (n = 15)
  HBI 14 w post first treatment: 0.8 ± 0.3
  Albumin 2 w post first treatment: 3.7 ± 0.1
  Albumin 14 w post first treatment: 4.0 ± 0.1
  CRP 14 w post first treatment: 5.1 ± 1.8
[2]; IFX responders (n = 15), 5 mg/kg induction
  CRP 2 w post first treatment: 2.7 ± 0.7
[2]; [4]
  non-responding patients: 9 patients
  responding patients: 15 patients
[3]; IFX non-responders (n = 9)
  IFX 2 w post first treatment: 8.9 ± 1.9 ng/µL
  IFX 14 w post first treatment: 0.9 ± 0.3 ng/µL
[3]; IFX responders (n = 15)
  IFX 2 w post first treatment: 10.7 ± 1.8 ng/µL
  IFX 14 w post first treatment: 3.3 ± 0.5 ng/µL
